Assay results reported in ChEMBL document CHEMBL1138677, “Design, synthesis, and biological evaluation of new cyclic disulfide decapeptides that inhibit the binding of AP-1 to DNA” (J Med Chem, 2004).
Residues, ends and D or L forms follow the SMILES beside them.

Legend:
[1] = target: Transcription factor AP1 (Homo sapiens) (UniProt P05412+P01100); assay: Percent inhibition of transcription activator protein-1 (AP-1) in DNA binding assay at 100 uM; assay type: protein-complex assay
Transcription factor AP1 = Transcription factor AP1 (Homo sapiens, UniProt P01100+P05412); assay: Inhibitory activity against transcription activator protein-1 (AP-1); assay type: protein-complex assay
Chain of Transcription factor AP1 (P05412 whole entry): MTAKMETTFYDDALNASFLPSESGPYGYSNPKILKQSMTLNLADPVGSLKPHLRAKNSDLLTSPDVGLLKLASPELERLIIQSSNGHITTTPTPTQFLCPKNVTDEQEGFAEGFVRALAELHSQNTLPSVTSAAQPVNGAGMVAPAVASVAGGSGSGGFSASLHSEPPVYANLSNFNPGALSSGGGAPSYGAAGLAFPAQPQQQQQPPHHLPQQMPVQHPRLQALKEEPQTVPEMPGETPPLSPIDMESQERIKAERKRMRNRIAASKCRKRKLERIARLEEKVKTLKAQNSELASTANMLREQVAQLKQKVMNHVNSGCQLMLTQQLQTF
Chain of Transcription factor AP1 (P01100 whole entry): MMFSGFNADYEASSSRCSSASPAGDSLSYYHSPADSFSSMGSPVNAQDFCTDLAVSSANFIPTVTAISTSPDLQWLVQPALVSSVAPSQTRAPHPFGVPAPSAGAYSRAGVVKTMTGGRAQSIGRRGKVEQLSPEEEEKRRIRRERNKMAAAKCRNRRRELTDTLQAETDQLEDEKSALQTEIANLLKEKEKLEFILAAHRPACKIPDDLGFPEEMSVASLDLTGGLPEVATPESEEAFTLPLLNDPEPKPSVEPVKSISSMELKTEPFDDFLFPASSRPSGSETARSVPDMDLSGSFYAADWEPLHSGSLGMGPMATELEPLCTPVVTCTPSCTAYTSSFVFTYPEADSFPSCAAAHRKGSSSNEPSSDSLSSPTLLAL

Structure (SMILES)	inhibition [1]	IC50 (Transcription factor AP1)
CC(C)C[C@H](NC(=O)[C@H](CC(=O)O)NC(=O)[C@H](CC(C)C)NC(=O)[C@H](CCC(N)=O)NC(=O)CN)C(=O)NCC(=O)N[C@@H](CC(=O)O)C(=O)NCC(=O)O (H-GQLDLGDG-OH)	1%	> 200 µM
CC(C)C[C@H](NC(=O)[C@H](C)NC(=O)[C@H](CC(C)C)NC(=O)[C@H](CCC(N)=O)NC(=O)CN)C(=O)N[C@@H](C)C(=O)N[C@@H](CC(=O)O)C(=O)NCC(=O)O (H-GQLALADG-OH)	-1%	> 200 µM
CC(C)C[C@H](NC(=O)[C@H](CC(=O)O)NC(=O)[C@H](CC(C)C)NC(=O)[C@H](CCC(=O)O)NC(=O)CN)C(=O)N[C@@H](C)C(=O)N[C@@H](CC(=O)O)C(=O)NCC(=O)O (H-GELDLADG-OH)	-2%	> 200 µM
CC(C)C[C@H](NC(=O)[C@H](CC(=O)O)NC(=O)[C@H](CC(C)C)NC(=O)[C@H](CCCCN)NC(=O)CN)C(=O)N[C@@H](C)C(=O)N[C@@H](CC(=O)O)C(=O)NCC(=O)O (H-GKLDLADG-OH)	-2%	> 200 µM
CC(C)C[C@H](NC(=O)[C@H](CCC(N)=O)NC(=O)CN)C(=O)N[C@@H](CC(=O)O)C(=O)N[C@@H](CC1CCCCC1)C(=O)N[C@@H](C)C(=O)N[C@@H](CC(=O)O)C(=O)NCC(=O)O (HELM PEPTIDE1{G.Q.L.D.[Cha].A.D.G}$$$$V2.0)	10%	> 100 µM
CC(C)C[C@H](NC(=O)[C@H](CC(=O)O)NC(=O)[C@H](CC(C)C)NC(=O)[C@H](CCC(N)=O)NC(=O)CN)C(=O)N[C@@H](C)C(=O)N[C@@H](CC(=O)O)C(=O)N[C@@H](C)C(=O)O (H-GQLDLADA-OH)	15%	> 100 µM
CC(C)C[C@H](NC(=O)[C@H](C)NC(=O)CN)C(=O)N[C@@H](CC(=O)O)C(=O)N[C@@H](CC(C)C)C(=O)N[C@@H](C)C(=O)N[C@@H](CC(=O)O)C(=O)NCC(=O)O (H-GALDLADG-OH)	29%	> 100 µM
CC(C)C[C@H](NC(=O)[C@H](CC(=O)O)NC(=O)[C@H](CC(C)C)NC(=O)[C@H](CCC(N)=O)NC(=O)CN)C(=O)N[C@@H](C)C(=O)N[C@@H](CC(=O)O)C(=O)O (H-GQLDLAD-OH)	11%	> 100 µM
CC(C)C[C@H](NC(=O)[C@H](CC(=O)O)NC(=O)[C@H](CC(C)C)NC(=O)[C@H](CC(N)=O)NC(=O)CN)C(=O)N[C@@H](C)C(=O)N[C@@H](CC(=O)O)C(=O)NCC(=O)O (H-GNLDLADG-OH)	42%	> 100 µM
CC(C)C[C@H](NC(=O)[C@H](CC(=O)O)NC(=O)[C@H](CC(C)C)NC(=O)[C@H](CCC(N)=O)NC(=O)[C@H](C)N)C(=O)N[C@@H](C)C(=O)N[C@@H](CC(=O)O)C(=O)NCC(=O)O (H-AQLDLADG-OH)	5%	> 100 µM

More lines, now with the values ahead:

inhibition [1]	IC50 (Transcription factor AP1)	Structure (SMILES)
81%	8 µM	CC(C)C[C@H](NC(=O)[C@H](CC(=O)O)NC(=O)[C@H](CC(C)C)NC(=O)[C@H](CCC(N)=O)NC(=O)CN)C(=O)N[C@@H](C)C(=O)N[C@@H](CC(=O)O)C(=O)NCC(=O)O (H-GQLDLADG-OH)
-2%	> 100 µM	CC(C)C[C@H](NC(=O)[C@H](CC(=O)O)NC(=O)[C@H](CC(C)C)NC(=O)[C@@H](N)CCC(N)=O)C(=O)N[C@@H](C)C(=O)N[C@@H](CC(=O)O)C(=O)NCC(=O)O (H-QLDLADG-OH)
14%	> 100 µM	CC(C)C[C@H](NC(=O)[C@H](CC(=O)O)NC(=O)[C@H](CC(C)C)NC(=O)[C@H](CCC(N)=O)NC(=O)CN)C(=O)N[C@@H](C)C(=O)N[C@@H](C)C(=O)NCC(=O)O (H-GQLDLAAG-OH)
64%	52 µM	CC(C)C[C@H](NC(=O)[C@H](CC(=O)O)NC(=O)[C@H](CC(C)C)NC(=O)[C@H](CCC(N)=O)NC(=O)CN)C(=O)N[C@@H](C)C(=O)N[C@@H](CC(N)=O)C(=O)NCC(=O)O (H-GQLDLANG-OH)
	> 100 µM	CC(C)C[C@H](NC(=O)[C@H](CC(=O)O)NC(=O)[C@H](CC1CCCCC1)NC(=O)[C@H](CCC(N)=O)NC(=O)CN)C(=O)N[C@@H](C)C(=O)N[C@@H](CC(=O)O)C(=O)NCC(=O)O (HELM PEPTIDE1{G.Q.[Cha].D.L.A.D.G}$$$$V2.0)
7%	> 100 µM	CC(C)C[C@H](NC(=O)[C@H](CCC(N)=O)NC(=O)CN)C(=O)N[C@@H](CC(=O)O)C(=O)N[C@@H](C)C(=O)N[C@@H](C)C(=O)N[C@@H](CC(=O)O)C(=O)NCC(=O)O (H-GQLDAADG-OH)
11%	> 100 µM	CC(C)C[C@H](NC(=O)[C@H](CC(=O)O)NC(=O)[C@H](C)NC(=O)[C@H](CCC(N)=O)NC(=O)CN)C(=O)N[C@@H](C)C(=O)N[C@@H](CC(=O)O)C(=O)NCC(=O)O (H-GQADLADG-OH)
